What was measured:
[1] = test system: CRC liver metastases; test: 5-FU treatment monitored with PRISM, CRC liver metastasis model; format: in vivo, mice; settings: 5-FU 15 mg/kg i.p.
Excerpt: (§1) After validation of the efficacy of tailored PRISM nanoparticles, these sensors were applied to study how proteolytic activities correlate with changes in the progression of disease over time and in response to drug treatment. In addition, molecular imaging was safely performed for any lesion for multiple times, providing information related to regional heterogeneity in a given tumor. To evaluate PRISM in monitoring treatment responses, mice were grouped into two categories (n=5 each) to allow monitoring the effect of standard chemotherapy 5-FU treatment: one group received drug (15 mg/kg) by i.p. injection (daily injection for 4 days and once every other day till end of study); and the second group received vehicle as control. To monitor therapeutic responses in treating metastases, PRISM was intravenously injected in each group of mice. After 1 hr of sensor injection, urinary reporter level was assayed to track local proteolytic activity, reflecting tumor invasion capacity. At 6 hrs post-injection, mice were scanned using a small animal PET/CT imager for longitudinal assessment of the tumor progression. […] Real-time images were analyzed and standard uptake value of radioactive reporters were quantified using VivoQuant software.

[2] = test system: CRC lung metastases; test: 5-FU treatment monitored with PRISM, CRC lung metastasis model; format: in vivo, mice
Excerpt: as §1
To monitor therapeutic responses when metastases in the CRC lung metastasis model were treated, PRISM was again intravenously injected in two group of mice on a weekly basis. One hour following sensor injection, urinary reporter level was read to track the local proteolytic activity. […] 6 hours after sensor injection, PET/CT were applied to monitor tumor growth or regression, which provides a longitudinal, noninvasive assessment of the efficacy of anti-tumor drug treatment. […] Consistently, the relative lung/liver ratio of PET/CT signal in the cohort that received no treatment was over 3 times higher than that of the cohort treated with chemotherapy (n=5) (FIG. 6G).

Structure (SMILES): O=c1[nH]cc(F)c(=O)[nH]1 [5-FU]
- tumor progression / tumor growth vs untreated ([1]; started two weeks after tumor inoculation, PET/CT): significantly inhibited tumor progression
- urinary reporter level vs non-treated cohort ([1]; urine 1 hr after PRISM injection): decreased urinary reporter level
- urinary reporter level vs untreated control group ([2]; 5-FU treated mice, urine one hour after PRISM injection): Significantly reduced urinary reporter levels
- tumor growth vs untreated controls ([2]; PET/CT 6 hours after sensor injection): slower tumor growth
- relative lung/liver ratio of PET/CT signal, untreated cohort relative to 5-FU treated cohort ([2]; n=5, FIG. 6G): over 3 times

Reference: patent US11835522B2, “Sensors for detecting and imaging of cancer metastasis” (Massachusetts Institute of Technology, priority 2019, dated 2023)
